Results on seven compounds are retold here after ChEMBL document CHEMBL5608221, “Innovative Therapeutic Approaches Targeting K-Ras: Analysis of Macrocyclic Compounds, Peptidomimetics, and Pyridopyrimidine Inhibitors” (ACS Med Chem Lett, 2024).

In the assay the target is GTPase KRas (Homo sapiens, UniProt P01116, G12V). Kind of assay: Inhibition of GDP bound KRAS G12V mutant (unknown origin).
Chain of GTPase KRas (P01116 whole entry G12V): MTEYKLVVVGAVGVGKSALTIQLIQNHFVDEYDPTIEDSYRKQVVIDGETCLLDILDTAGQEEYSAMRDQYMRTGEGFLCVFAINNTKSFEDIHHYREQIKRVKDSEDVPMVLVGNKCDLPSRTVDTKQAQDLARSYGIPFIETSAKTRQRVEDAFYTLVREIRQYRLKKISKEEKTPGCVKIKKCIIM
One may read the IC50 as the concentration at which inhibition is half-maximal. For the compound `C#Cc1c(F)ccc2cc(O)cc(-c3ncc4c(N(C)[C@H]5C[C@@H]5F)nc(OC[C@@]56CCCN5CC(=C)C6)nc4c3F)c12`, the IC50 worked out at 0.246 nM. Under `[2H]C([2H])([2H])N(c1nc(OC([2H])([2H])C23CCC([2H])([2H])N2C[C@]([2H])(F)C3)nc2c(F)c(-c3cc(O)cc4ccc(F)c(C#C)c34)ncc12)[C@H]1C[C@@H]1F` (some centres not stated) stands 0.216 nM. Under `[2H]C([2H])([2H])N(c1nc(OC([2H])([2H])C23CCC([2H])([2H])N2C[C@@]([2H])(F)C3)nc2c(F)c(-c3cc(O)cc4ccc(F)c(C#C)c34)ncc12)[C@H]1C[C@@H]1F` (some centres not stated) stands 0.689 nM; under `C#Cc1c(F)ccc2cc(O)cc(-c3ncc4c(N(C)[C@H]5C[C@@H]5F)nc(OCC56CCCN5CC(=C)C6)nc4c3F)c12` (some centres not stated), 0.405 nM. As for `C#Cc1c(F)ccc2cc(N)cc(-c3ncc4c(N(C)[C@H]5C[C@@H]5F)nc(OCC56CCCN5CC(=C)C6)nc4c3F)c12.OCC(F)(F)F` (some centres not stated), the IC50 was found to be 1.99 nM.

For `C#Cc1c(F)ccc2cc(O)cc(-c3ncc4c(N(C)[C@H]5C[C@@H]5F)nc(OCC56CCCN5CC(=C)C6)nc4c3F)c12.OCC(F)(F)F` (some centres not stated), the half-inhibitory concentration (IC50) turned out to be 0.371 nM. Under `C#Cc1c(F)ccc2cc(O)cc(-c3ncc4c(N(C)[C@H]5C[C@@H]5F)nc(OC[C@]56CCCN5CC(=C)C6)nc4c3F)c12` stands 0.589 nM.
